Experimental data reported in ChEMBL document CHEMBL4418308, “cGAS ANTAGONIST COMPOUNDS” (2017).

Experiments:
Cyclic GMP-AMP synthase [1] = target: T1, Cyclic GMP-AMP synthase (Homo sapiens, UniProt Q8N884); assay: Inhibition of CGAS in human THP1 cells transfected with mock Sendai virus and measured after 16 hrs by Gaussia luciferase reporter gene assay; assay type: cell-based
Cyclic GMP-AMP synthase [2] = target: T1, Cyclic GMP-AMP synthase; assay: Inhibition of CGAS in human THP1 cells transfected with interferon stimulatory DNA and measured after 16 hrs by Gaussia luciferase reporter gene assay; assay type: cell-based
Cyclic GMP-AMP synthase [3] = target: T1, Cyclic GMP-AMP synthase; assay: Inhibition of recombinant His6-SUMO tagged human CGAS expressed in Escherichia coli BL21/pLys cells incubated for 20 mins by Kinase Glo chemiluminescence assay

T1 sequence (Q8N884 whole entry): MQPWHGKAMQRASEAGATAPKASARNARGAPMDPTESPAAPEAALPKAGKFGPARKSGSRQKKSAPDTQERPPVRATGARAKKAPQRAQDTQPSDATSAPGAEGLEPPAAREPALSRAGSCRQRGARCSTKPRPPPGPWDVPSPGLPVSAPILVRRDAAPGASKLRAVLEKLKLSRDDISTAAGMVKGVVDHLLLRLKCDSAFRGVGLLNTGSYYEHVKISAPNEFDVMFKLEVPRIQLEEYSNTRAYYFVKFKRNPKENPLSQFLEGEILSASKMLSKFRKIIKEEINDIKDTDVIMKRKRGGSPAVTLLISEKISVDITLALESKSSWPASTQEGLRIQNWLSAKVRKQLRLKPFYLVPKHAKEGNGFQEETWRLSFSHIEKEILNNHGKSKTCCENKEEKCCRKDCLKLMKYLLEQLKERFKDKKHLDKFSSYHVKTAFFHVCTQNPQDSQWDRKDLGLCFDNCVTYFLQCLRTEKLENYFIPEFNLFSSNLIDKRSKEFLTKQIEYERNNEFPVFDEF

| SMILES | IC50 (Cyclic GMP-AMP synthase [1]) | IC50 (Cyclic GMP-AMP synthase [2]) | IC50 (Cyclic GMP-AMP synthase [3]) |
| --- | --- | --- | --- |
| O=C1/C(=C/c2cc(CC(F)(F)F)c(O)cc2Br)Sc2ncccc21 | ≥ 10 µM | 2.5 to 10 µM | ≤ 0.5 µM |
| CN1C(=O)S/C(=C\c2cc3c(-c4cnc(N)nc4)c[nH]c3c(F)c2Br)C1=O | ≥ 10 µM | 2.5 to 10 µM | ≤ 0.5 µM |
| CCC(Oc1cc(/C=C2\SC(=O)N(C)C2=O)c(Br)c(F)c1O)c1cnc(N)nc1 (stereo not given) | ≥ 10 µM | 2.5 to 10 µM | ≤ 0.5 µM |
| CN1C(=O)S/C(=C\c2cc3c(Cc4cnc(N)nc4)c[nH]c3c(F)c2Br)C1=O | ≥ 10 µM | ≥ 10 µM | ≤ 0.5 µM |
| [2H]C([2H])(Oc1cc(/C=C2\SC(=O)N(C)C2=O)c(Br)cc1O)c1cnc(N)nc1 | ≥ 10 µM | ≤ 2.5 µM | ≤ 0.5 µM |
| C[S+]([O-])c1ncc(COc2cc(/C=C3\Sc4ncccc4C3=O)c(Br)c(F)c2O)cn1 (stereo not given) | ≥ 10 µM | 2.5 to 10 µM | 0.5 to 10 µM |

Further lines, results first:

| IC50 (Cyclic GMP-AMP synthase [1]) | IC50 (Cyclic GMP-AMP synthase [2]) | IC50 (Cyclic GMP-AMP synthase [3]) | SMILES |
| --- | --- | --- | --- |
| ≥ 10 µM | ≤ 2.5 µM | ≤ 0.5 µM | CN1C(=O)S/C(=C\c2cc(O/C=C/c3cnc(N)nc3)c(O)c(F)c2Br)C1=O |
| ≥ 10 µM | 2.5 to 10 µM | ≤ 0.5 µM | CC1C(=O)S/C(=C\c2cc(OC(C)c3cnc(N)nc3C(F)(F)F)c(O)c(F)c2Br)C1=O (stereo not given) |
| ≥ 10 µM | ≥ 10 µM | ≤ 0.5 µM | CC(Oc1cc(/C=C2\SC(=O)N(C)C2=O)c(Br)c(F)c1O)C(O)c1cnc(N)nc1 (stereo not given) |
| ≥ 10 µM | ≤ 2.5 µM | ≤ 0.5 µM | CN1C(=O)S/C(=C\c2cc(OCCc3cnc(N)nc3)c(O)c(F)c2Br)C1=O |
